Columns and labels:
Conditions in all cases: 48 h
NOMO1 [1] = test: AUC of viability dose-response curve (% viability x log10 dose units); higher = less sensitive
In short: (§1)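 Leukemia cells adapted to each medium were seeded in 1536-well plates (500 or 1000 cells/well). They were dosed with library compounds in DMSO at 11 threefold doses, 47 μM to 0.79 nM, for 48 h at 37°C. CellTiter-Glo One luminescence was normalised per plate to DMSO and cell-free wells. Area under the curve was integrated by trapezoidal rule over log10 doses on a four-parameter log-logistic fit; curves exceeding full viability were scaled and curves failing quality control removed.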

SEM cells [2] = test: as above
In short: as §1

P12-Ichikawa [3] = test: as above
In short: as §1

SEM cells [4] = test: cell viability relative to DMSO control; higher = less cytotoxic
In short: (§2)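 Viability is a per-plate percentage relative to DMSO wells, with cell-free wells as background. CellTiter-Glo One luminescence was read after 48 h at 37°C on 1536-well plates (5 μl) of NOMO1 or SEM (500 cells/well) or P12-Ichikawa (1000 cells/well) leukemia cells. The cells had been adapted for at least four passages in each medium and pin-dosed with library compounds in DMSO from 47 μM to 0.79 nM in 11 threefold steps.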

NOMO1 [5] = test: as above
In short: as §2

P12-Ichikawa [6] = test: as above
In short: as §2

CN1CCN(c2cccc(Nc3nc4c(-c5ccc([S+](C)(=O)[O-])cc5)cccn4n3)c2)CC1
AUC of viability dose-response curve
Conditions | NOMO1 [1] | P12-Ichikawa [3] | SEM cells [2]
HPLM + 10% dialyzed FBS | 438 | 453 | 379
RPMI 5 mM glucose + 10% FBS | 449 | 427 | 375
RPMI 5 mM glucose + 10% dialyzed FBS | 450 | 435 | 372

CCCN[S+](=O)([O-])Nc1ncnc(OCCOc2ncc(Br)cn2)c1-c1ccc(Br)cc1
SEM cells [4], HPLM + 10% dialyzed FBS
Conditions | cell viability [%]
0.000781 µM | 125
0.00234 µM | 120
0.00702 µM | 123
0.0211 µM | 120
0.0632 µM | 123
0.19 µM | 137
0.569 µM | 123
1.71 µM | 123
5.12 µM | 124
15.4 µM | 131
46.1 µM | 88.8

AUC of viability dose-response curve
Conditions | NOMO1 [1] | P12-Ichikawa [3] | SEM cells [2]
HPLM + 10% dialyzed FBS | 442 | 457 | 470
RPMI 5 mM glucose + 10% FBS | 468 | 431 | 468
RPMI 5 mM glucose + 10% dialyzed FBS | 468 | 452 | 429

CCOP(=O)(OCC)C(C)NC(=O)N(CCCl)N=O (configuration not stated)
cell viability [%]
Conditions | NOMO1 [5] | P12-Ichikawa [6] | SEM cells [4]
HPLM + 10% dialyzed FBS, 0.000781 µM | – | 122 | 101
HPLM + 10% dialyzed FBS, 0.00234 µM | – | 116 | 109
HPLM + 10% dialyzed FBS, 0.00702 µM | – | 132 | 125
HPLM + 10% dialyzed FBS, 0.0211 µM | – | 119 | 114
HPLM + 10% dialyzed FBS, 0.0632 µM | – | 124 | 126
HPLM + 10% dialyzed FBS, 0.19 µM | – | 130 | 128
HPLM + 10% dialyzed FBS, 0.569 µM | – | 123 | 129
HPLM + 10% dialyzed FBS, 1.71 µM | – | 123 | 122
HPLM + 10% dialyzed FBS, 5.12 µM | – | 128 | 119
HPLM + 10% dialyzed FBS, 15.4 µM | – | 130 | 127
HPLM + 10% dialyzed FBS, 46.1 µM | – | 141 | 94.9
RPMI 5 mM glucose + 10% FBS, 0.000781 µM | 120 | – | 90.7
RPMI 5 mM glucose + 10% FBS, 0.00234 µM | 115 | – | 98.1
RPMI 5 mM glucose + 10% FBS, 0.00702 µM | 124 | – | 98.7
RPMI 5 mM glucose + 10% FBS, 0.0211 µM | 134 | – | 104
RPMI 5 mM glucose + 10% FBS, 0.0632 µM | 121 | – | 101
RPMI 5 mM glucose + 10% FBS, 0.19 µM | 131 | – | 111
RPMI 5 mM glucose + 10% FBS, 0.569 µM | 126 | – | 78.4
RPMI 5 mM glucose + 10% FBS, 1.71 µM | 139 | – | 95.5
RPMI 5 mM glucose + 10% FBS, 5.12 µM | 141 | – | 87.1
RPMI 5 mM glucose + 10% FBS, 15.4 µM | 163 | – | 84.6
RPMI 5 mM glucose + 10% FBS, 46.1 µM | 154 | – | 74.4
RPMI 5 mM glucose + 10% dialyzed FBS, 0.000781 µM | 112 | – | 108
RPMI 5 mM glucose + 10% dialyzed FBS, 0.00234 µM | 116 | – | 97
RPMI 5 mM glucose + 10% dialyzed FBS, 0.00702 µM | 138 | – | 116
RPMI 5 mM glucose + 10% dialyzed FBS, 0.0211 µM | 141 | – | 122
RPMI 5 mM glucose + 10% dialyzed FBS, 0.0632 µM | 137 | – | 112
RPMI 5 mM glucose + 10% dialyzed FBS, 0.19 µM | 137 | – | 127
RPMI 5 mM glucose + 10% dialyzed FBS, 0.569 µM | 134 | – | 127
RPMI 5 mM glucose + 10% dialyzed FBS, 1.71 µM | 136 | – | 137
RPMI 5 mM glucose + 10% dialyzed FBS, 5.12 µM | 133 | – | 107
RPMI 5 mM glucose + 10% dialyzed FBS, 15.4 µM | 140 | – | 103
RPMI 5 mM glucose + 10% dialyzed FBS, 46.1 µM | 128 | – | 81.2

AUC of viability dose-response curve
Conditions | NOMO1 [1] | P12-Ichikawa [3] | SEM cells [2]
HPLM + 10% dialyzed FBS | 441 | 431 | 470
RPMI 5 mM glucose + 10% FBS | 402 | 453 | 447
RPMI 5 mM glucose + 10% dialyzed FBS | 466 | 436 | 461

CCCCOc1ccc(C(=O)Nc2ccc(F)cc2F)cc1
cell viability [%]
Conditions | NOMO1 [5] | P12-Ichikawa [6] | SEM cells [4]
HPLM + 10% dialyzed FBS, 0.000781 µM | 85.8 | 83.2 | 68.1
HPLM + 10% dialyzed FBS, 0.00234 µM | 90.8 | 95.7 | 88.6
HPLM + 10% dialyzed FBS, 0.00702 µM | 91.4 | 83.5 | 67.1
HPLM + 10% dialyzed FBS, 0.0211 µM | 96.3 | 86.5 | 95.1
HPLM + 10% dialyzed FBS, 0.0632 µM | 89.2 | 90.6 | 86.9
HPLM + 10% dialyzed FBS, 0.19 µM | 85.6 | 85.3 | 88.3
HPLM + 10% dialyzed FBS, 0.569 µM | 103 | 89.1 | 84.6
HPLM + 10% dialyzed FBS, 1.71 µM | 104 | 97.1 | 30.1
HPLM + 10% dialyzed FBS, 5.12 µM | 92.2 | 96 | 88.1
HPLM + 10% dialyzed FBS, 15.4 µM | 97.8 | 102 | 92.5
HPLM + 10% dialyzed FBS, 46.1 µM | 51 | 67.1 | 83.4
RPMI 5 mM glucose + 10% FBS, 0.000781 µM | 81.7 | 78.9 | 68.6
RPMI 5 mM glucose + 10% FBS, 0.00234 µM | 87.5 | 91.8 | 88.8
RPMI 5 mM glucose + 10% FBS, 0.00702 µM | 81.5 | 82 | 65.9
RPMI 5 mM glucose + 10% FBS, 0.0211 µM | 89.5 | 92.9 | 86.5
RPMI 5 mM glucose + 10% FBS, 0.0632 µM | 86.3 | 89.4 | 83.4
RPMI 5 mM glucose + 10% FBS, 0.19 µM | 94.7 | 89.5 | 92.7
RPMI 5 mM glucose + 10% FBS, 0.569 µM | 88.1 | 89.4 | 81.5
RPMI 5 mM glucose + 10% FBS, 1.71 µM | 93.8 | 93 | 48.3
RPMI 5 mM glucose + 10% FBS, 5.12 µM | 92.9 | 89 | 88.4
RPMI 5 mM glucose + 10% FBS, 15.4 µM | 88.3 | 88.1 | 101
RPMI 5 mM glucose + 10% FBS, 46.1 µM | 83 | 84.3 | 73.5
RPMI 5 mM glucose + 10% dialyzed FBS, 0.000781 µM | 79.5 | 84 | 78
RPMI 5 mM glucose + 10% dialyzed FBS, 0.00234 µM | 89.2 | 83.7 | 89.7
RPMI 5 mM glucose + 10% dialyzed FBS, 0.00702 µM | 76.8 | 79.2 | 70.6
RPMI 5 mM glucose + 10% dialyzed FBS, 0.0211 µM | 97.5 | 87.1 | 90.1
RPMI 5 mM glucose + 10% dialyzed FBS, 0.0632 µM | 89.6 | 83.9 | 84.7
RPMI 5 mM glucose + 10% dialyzed FBS, 0.19 µM | 95.4 | 80.2 | 85.6
RPMI 5 mM glucose + 10% dialyzed FBS, 0.569 µM | 91.9 | 86.7 | 86.2
RPMI 5 mM glucose + 10% dialyzed FBS, 1.71 µM | 96.5 | 89.3 | 48.1
RPMI 5 mM glucose + 10% dialyzed FBS, 5.12 µM | 97.8 | 92.5 | 88
RPMI 5 mM glucose + 10% dialyzed FBS, 15.4 µM | 88.5 | 87.3 | 90.2
RPMI 5 mM glucose + 10% dialyzed FBS, 46.1 µM | 92 | 86.6 | 76.7

AUC of viability dose-response curve
Conditions | NOMO1 [1] | P12-Ichikawa [3] | SEM cells [2]
HPLM + 10% dialyzed FBS | 437 | 423 | 377
RPMI 5 mM glucose + 10% FBS | 420 | 422 | 383
RPMI 5 mM glucose + 10% dialyzed FBS | 433 | 408 | 385

Source: the supplement of paper PMC11451515
